The target in series [1] is T1, α-Chymotrypsin (EC 3.4.21.1) from bovine pancreas, immobilized on thioester-derivatized glass beads (20.2 mg/g) (Bos taurus, UniProt P00766).
T1 construct: purchased Miles Laboratories or Sigma Chemical Co; host or cells: bovine pancreas
The series can be described thus: Hydrolysis of BzTyrOEt by α-chymotrypsin immobilized on thioester-glass beads (20.2 mg/g). It counts as biochemical. The conditions noted are these: substrate BzTyrOEt; immobilized (20.2 mg/g). On the set-up: unit not given here. Here is the method: (§1) α-Chymotrypsin (EC 3.4.21.1) from bovine pancreas was obtained as a lyophilized powder from Miles Laboratories or Sigma Chemical Co. and used without further purification. All chemicals used were reagent grade or better.
(§2) Succinamidopropyl-derivatized glass was converted to the acyl chloride derivative by treatment with anhydrous thionyl chloride. Care was taken to prevent the introduction of water in each of these reaction steps. The reacion mixture was held at 70° C. for 1 hour. The solution was then cooled to 25° C., and excess thionyl chloride was drained from the beads, which were then rinsed thoroughly with dry dichloromethane. The beads were next covered with anhydrous 3-mercaptopropionic acid and again held at 70° C. for 1 hour. Following reaction, the excess acid was drained, and the derivatized beads were again washed with dichloromethane. […]
(§3) Hydrolysis of benzoly-L-tyrosine ethyl ester (BzTyrOEt) by α-chymotrypsin was assayed according to the method of Hummel, B. C. […] Reaction was initiated by addition of soluble enzyme to the reaction mixture, and reaction progress was monitored spectrophotometrically at 256 nm. […] Initial slopes were read directly from the recorder chart and kinetic constants were evaluated using a computer program to fit data directly to velocity versus substrate concentration curves.

Series [2] deals with T2, α-Chymotrypsin (EC 3.4.21.1) from bovine pancreas, immobilized on thioester-derivatized glass beads (9.5 mg/g) (Bos taurus, UniProt P00766).
T2 construct: purchased Miles Laboratories or Sigma Chemical Co; host or cells: bovine pancreas
Kind of series: Hydrolysis of BzTyrOEt by α-chymotrypsin immobilized on thioester-glass beads (9.5 mg/g, after brief hydroxylamine treatment). Details: unit not given here. The conditions noted are these: substrate BzTyrOEt; immobilized (9.5 mg/g). The series is classed as biochemical. As to the method:
as §1, §2, §3

Series [3] concerns CCOC(=O)[C@H](Cc1ccc(O)cc1)NC(=O)c1ccccc1. The series can be described thus: purified protein, by the assay type. The conditions noted are these: other: substrate BzTyrOEt.

`CCOC(=O)[C@H](Cc1ccc(O)cc1)NC(=O)c1ccccc1` [BzTyrOEt, benzoly-L-tyrosine ethyl ester]: the “kcat /Km (app)” value in series [1] came out at 0.9; in series [2] it was 1.0.
“α-Chymotrypsin (EC 3.4.21.1) from bovine pancreas, native soluble enzyme before immobilization (Bos taurus)”: the Km in series [3] (soluble enzyme before immobilization) was found to be 2.74 mM.
As for “α-Chymotrypsin (EC 3.4.21.1) from bovine pancreas, soluble enzyme released by hydroxylamine (thioacylated, about three chains per molecule) (Bos taurus)”, the Km in series [3] (soluble enzyme released by hydroxylamine, pH 7.0) was 3.35 mM.

One may read the Km as the concentration of substrate that gives half-maximal velocity.

The record behind these values is patent US4284553A, “Reversible method for covalent immobilization of biochemicals” (North Carolina State University at Raleigh, priority 1980, dated 1981).
